# Calls of active or inactive are those of the source.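 Rule for the calls: active = blockers of MCL1 binding to BIM peptide with IC50 at or below 10 micromolar; inactive = IC50 above 10 micromolar.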
# Molecular target: Induced myeloid leukemia cell differentiation protein Mcl-1 (Homo sapiens) (UniProt Q07820)
# Assay: blockers of MCL1–BIM BH3 interaction – biochemical, fluorescence polarization, GST-MCL1, FITC-BIM-BH3, powder samples, dose response (AID 2791)
# Induced myeloid leukemia cell differentiation protein Mcl-1 (Homo sapiens), sequence (Q07820 whole entry, looked up): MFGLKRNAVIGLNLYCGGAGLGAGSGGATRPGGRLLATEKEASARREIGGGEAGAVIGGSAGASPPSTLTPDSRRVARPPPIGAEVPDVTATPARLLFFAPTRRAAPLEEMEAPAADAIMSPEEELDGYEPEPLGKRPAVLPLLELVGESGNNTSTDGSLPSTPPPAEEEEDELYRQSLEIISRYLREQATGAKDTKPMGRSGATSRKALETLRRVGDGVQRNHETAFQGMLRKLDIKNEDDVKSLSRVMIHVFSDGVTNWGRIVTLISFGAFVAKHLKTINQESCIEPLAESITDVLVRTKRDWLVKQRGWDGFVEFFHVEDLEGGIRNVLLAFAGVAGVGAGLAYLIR
row,Structure (SMILES),IC50
1,COc1ccc(-n2cccc2/C=C2\C(=N)N3N=C(c4ccco4)SC3=NC2=O)cc1,1.45 µM
2,COc1ccc(NC(=O)CN(C)C(=O)c2cc3c(s2)CCC3)cc1,inactive
3,O=C(NN=Cc1ccc(-c2ccc(S(=O)(=O)Nc3ncccn3)cc2)o1)c1cc2ccccc2cc1O,> 109 µM (inactive)
4,O=C(NN=Cc1cccc(F)c1)c1cc(-c2ccco2)nc2ccccc12,6.88 µM
5,Cc1cccc(NC(=O)CNC(=O)c2cccc(-n3cccc3)c2)c1C,inactive
6,COc1ccc(Cc2nnc(NC(=O)Cc3cccs3)s2)cc1OC,7.34 µM

# Results, then the molecule that gave them:
row,IC50,Structure (SMILES)
1,> 109 µM (inactive),CCOc1ccc(NC(=O)c2cccc(-n3cccc3)c2)cc1S(=O)(=O)N1CCOCC1
2,4.09 µM,C=CCn1c(SCC(=O)c2ccc(O)c(O)c2)nnc1-c1cccnc1
3,> 109 µM (inactive),O=C1COc2ccc(C(=O)COC(=O)/C=C/c3ccc(Br)o3)cc2N1
4,inactive,CCc1sc(C(C2C(=O)CC(C)(C)CC2=O)C2C(=O)CC(C)(C)CC2=O)cc1[N+](=O)[O-]
5,5.84 µM,Nc1ccc(C(=O)NN=Cc2cc(N=Nc3cccc4ccccc34)ccc2O)cc1
6,5.01 µM,COC(=O)c1ccccc1NCc1cc(=O)oc2cc(O)c(O)cc12
7,0.844 µM,C=CCN=c1scc(-c2ccco2)n1/N=C/c1ccc(O)c(O)c1O
